# From the NIST ThermoML archive (doi:10.1016/j.jct.2005.11.003)
# Numbers after ± are expanded uncertainties.
# Columns and labels:
# [1] = xn = mol fraction of the nth substance listed; details: 298.15 K, 101 kPa, Liquid
# [2] = excess molar enthalpy (molar enthalpy of mixing); xn = mol fraction of the nth substance listed; details: 298.15 K, 101 kPa, Liquid
compound,measurement,setting,value
"ClCCCCCCCl [1,6-dichlorohexane] + CCCCOC(=O)CC",mass density,[1]; x2 = 0.0591,1052.23 ± 1.1 kg/m3
same,mass density,[1]; x2 = 0.1161,1041.11 ± 1 kg/m3
same,mass density,[1]; x2 = 0.1728,1030.03 ± 0.97 kg/m3
same,mass density,[1]; x2 = 0.2284,1019.22 ± 0.93 kg/m3
same,mass density,[1]; x2 = 0.345,996.62 ± 0.85 kg/m3
same,mass density,[1]; x2 = 0.4083,984.38 ± 0.81 kg/m3
same,mass density,[1]; x2 = 0.4668,973.12 ± 0.78 kg/m3
same,mass density,[1]; x2 = 0.5258,961.74 ± 0.74 kg/m3
same,mass density,[1]; x2 = 0.6403,939.75 ± 0.68 kg/m3
same,mass density,[1]; x2 = 0.6994,928.38 ± 0.66 kg/m3
same,mass density,[1]; x2 = 0.7645,915.95 ± 0.63 kg/m3
same,mass density,[1]; x2 = 0.8173,905.83 ± 0.61 kg/m3
same,mass density,[1]; x2 = 0.8835,893.21 ± 0.58 kg/m3
same,mass density,[1]; x2 = 0.9423,882.05 ± 0.56 kg/m3
"ClCCCCCCCl [1,6-dichlorohexane] + CCCCOC=O",mass density,[1]; x2 = 0.0782,1052.81 ± 1.1 kg/m3
same,mass density,[1]; x2 = 0.1483,1042.74 ± 1.2 kg/m3
same,mass density,[1]; x2 = 0.2157,1032.73 ± 1.2 kg/m3
same,mass density,[1]; x2 = 0.2827,1022.46 ± 1.2 kg/m3
same,mass density,[1]; x2 = 0.3478,1012.18 ± 1.2 kg/m3
same,mass density,[1]; x2 = 0.4104,1002.02 ± 1.2 kg/m3
same,mass density,[1]; x2 = 0.5319,981.37 ± 1.3 kg/m3
same,mass density,[1]; x2 = 0.5893,971.18 ± 1.3 kg/m3
same,mass density,[1]; x2 = 0.6457,960.88 ± 1.3 kg/m3
same,mass density,[1]; x2 = 0.7539,940.28 ± 1.4 kg/m3
same,mass density,[1]; x2 = 0.8053,930.03 ± 1.4 kg/m3
same,mass density,[1]; x2 = 0.9044,909.61 ± 1.4 kg/m3
same,mass density,[1]; x2 = 0.9513,899.53 ± 1.4 kg/m3
same,excess molar enthalpy,[2]; x2 = 0.0701,0.0129 ± 0.00115 kcal/mol
same,excess molar enthalpy,[2]; x2 = 0.1508,0.0227 ± 0.00143 kcal/mol
same,excess molar enthalpy,[2]; x2 = 0.2299,0.0298 ± 0.00167 kcal/mol
same,excess molar enthalpy,[2]; x2 = 0.3026,0.0332 ± 0.00177 kcal/mol
same,excess molar enthalpy,[2]; x2 = 0.371,0.0338 ± 0.00179 kcal/mol
same,excess molar enthalpy,[2]; x2 = 0.434,0.0322 ± 0.00174 kcal/mol
same,excess molar enthalpy,[2]; x2 = 0.491,0.0291 ± 0.00165 kcal/mol
same,excess molar enthalpy,[2]; x2 = 0.5401,0.0255 ± 0.00153 kcal/mol
same,excess molar enthalpy,[2]; x2 = 0.5778,0.0221 ± 0.00143 kcal/mol
same,excess molar enthalpy,[2]; x2 = 0.6131,0.02 ± 0.00136 kcal/mol
same,excess molar enthalpy,[2]; x2 = 0.6659,0.0173 ± 0.00127 kcal/mol
same,excess molar enthalpy,[2]; x2 = 0.7195,0.016 ± 0.00124 kcal/mol
same,excess molar enthalpy,[2]; x2 = 0.7775,0.0137 ± 0.00117 kcal/mol
same,excess molar enthalpy,[2]; x2 = 0.8372,0.0105 ± 0.00108 kcal/mol
same,excess molar enthalpy,[2]; x2 = 0.8968,0.00693 ± 0.000956 kcal/mol
same,excess molar enthalpy,[2]; x2 = 0.9528,0.00313 ± 0.000837 kcal/mol
"ClCCCCCCl [1,5-dichloropentane] + CCCCOC(C)=O",mass density,[1]; x2 = 0.0558,1082.62 ± 0.62 kg/m3
same,mass density,[1]; x2 = 0.1119,1070.12 ± 0.62 kg/m3
same,mass density,[1]; x2 = 0.1697,1057.27 ± 0.62 kg/m3
same,mass density,[1]; x2 = 0.2268,1044.6 ± 0.62 kg/m3
same,mass density,[1]; x2 = 0.3432,1018.88 ± 0.62 kg/m3
same,mass density,[1]; x2 = 0.4608,993.04 ± 0.63 kg/m3
same,mass density,[1]; x2 = 0.5786,967.32 ± 0.66 kg/m3
same,mass density,[1]; x2 = 0.6957,941.92 ± 0.68 kg/m3
same,mass density,[1]; x2 = 0.8167,915.81 ± 0.7 kg/m3
same,mass density,[1]; x2 = 0.8757,903.13 ± 0.71 kg/m3
same,mass density,[1]; x2 = 0.9364,890.15 ± 0.73 kg/m3
"ClCCCCCl [1,4-dichlorobutane] + CCCCOC(C)=O",mass density,[1]; x2 = 0.0529,1117.81 ± 0.66 kg/m3
same,mass density,[1]; x2 = 0.1035,1102.8 ± 0.65 kg/m3
same,mass density,[1]; x2 = 0.1569,1087.25 ± 0.65 kg/m3
same,mass density,[1]; x2 = 0.2092,1072.35 ± 0.65 kg/m3
same,mass density,[1]; x2 = 0.2638,1057.04 ± 0.64 kg/m3
same,mass density,[1]; x2 = 0.3207,1041.46 ± 0.64 kg/m3
same,mass density,[1]; x2 = 0.3754,1026.74 ± 0.64 kg/m3
same,mass density,[1]; x2 = 0.4326,1011.67 ± 0.64 kg/m3
same,mass density,[1]; x2 = 0.4906,996.66 ± 0.64 kg/m3
same,mass density,[1]; x2 = 0.5505,981.49 ± 0.65 kg/m3
same,mass density,[1]; x2 = 0.6125,966.12 ± 0.66 kg/m3
same,mass density,[1]; x2 = 0.6735,951.29 ± 0.68 kg/m3
same,mass density,[1]; x2 = 0.7365,936.28 ± 0.69 kg/m3
same,mass density,[1]; x2 = 0.8011,921.17 ± 0.7 kg/m3
same,mass density,[1]; x2 = 0.8692,905.6 ± 0.71 kg/m3
same,mass density,[1]; x2 = 0.9352,890.8 ± 0.73 kg/m3
"ClCCCCl [1,3-dichloropropane] + CCCCOC=O",mass density,[1]; x2 = 0.0501,1161.72 ± 0.75 kg/m3
same,mass density,[1]; x2 = 0.101,1144.33 ± 0.78 kg/m3
same,mass density,[1]; x2 = 0.1527,1127.13 ± 0.81 kg/m3
same,mass density,[1]; x2 = 0.2078,1109.19 ± 0.85 kg/m3
same,mass density,[1]; x2 = 0.2601,1092.54 ± 0.89 kg/m3
same,mass density,[1]; x2 = 0.3145,1075.53 ± 0.92 kg/m3
same,mass density,[1]; x2 = 0.3712,1058.26 ± 0.96 kg/m3
same,mass density,[1]; x2 = 0.487,1024.07 ± 1 kg/m3
same,mass density,[1]; x2 = 0.6083,989.86 ± 1.1 kg/m3
same,mass density,[1]; x2 = 0.6701,973.02 ± 1.2 kg/m3
same,mass density,[1]; x2 = 0.7342,955.9 ± 1.2 kg/m3
same,mass density,[1]; x2 = 0.7984,939.11 ± 1.3 kg/m3
same,mass density,[1]; x2 = 0.8657,921.98 ± 1.3 kg/m3
same,mass density,[1]; x2 = 0.9315,905.54 ± 1.4 kg/m3
same,excess molar enthalpy,[2]; x2 = 0.046,0.00296 ± 0.000837 kcal/mol
same,excess molar enthalpy,[2]; x2 = 0.0992,0.00421 ± 0.00086 kcal/mol
same,excess molar enthalpy,[2]; x2 = 0.1566,0.00351 ± 0.00086 kcal/mol
same,excess molar enthalpy,[2]; x2 = 0.2391,0.00153 ± 0.000789 kcal/mol
same,excess molar enthalpy,[2]; x2 = 0.2953,-0.00098 ± 0.000765 kcal/mol
same,excess molar enthalpy,[2]; x2 = 0.3467,-0.00392 ± 0.00086 kcal/mol
same,excess molar enthalpy,[2]; x2 = 0.3972,-0.00822 ± 0.001 kcal/mol
same,excess molar enthalpy,[2]; x2 = 0.4442,-0.013 ± 0.00115 kcal/mol
same,excess molar enthalpy,[2]; x2 = 0.4874,-0.0174 ± 0.00129 kcal/mol
same,excess molar enthalpy,[2]; x2 = 0.5293,-0.0205 ± 0.00139 kcal/mol
same,excess molar enthalpy,[2]; x2 = 0.5696,-0.0213 ± 0.00141 kcal/mol
same,excess molar enthalpy,[2]; x2 = 0.6134,-0.0219 ± 0.00141 kcal/mol
same,excess molar enthalpy,[2]; x2 = 0.6636,-0.0217 ± 0.00141 kcal/mol
same,excess molar enthalpy,[2]; x2 = 0.7143,-0.0213 ± 0.00141 kcal/mol
same,excess molar enthalpy,[2]; x2 = 0.7798,-0.0192 ± 0.00134 kcal/mol
same,excess molar enthalpy,[2]; x2 = 0.8596,-0.0142 ± 0.00117 kcal/mol
same,excess molar enthalpy,[2]; x2 = 0.9334,-0.00782 ± 0.00098 kcal/mol
